# Target: Cezanne 1 (Homo sapiens (Human), UniProt Q6GQQ9)
# Test: Cezanne 1 biochemical IC50 assay (fluorescence polarisation, TAMRA labelled peptide linked to ubiquitin)
# Settings: Cezanne 1 biochemical IC50 assay; 30 min pre-incubation, read after 2 hr at room temperature; read-out: IC50 range
# Procedure: The Cezanne 1 construct was PCR amplified and cloned into a pFLAG-CMV-6c vector (Sigma-Aldrich) with an N-terminal FLAG tag. HEK293T cells were transfected with FLAG-Cezanne 1 using TransIT-LT1 transfection reagent (Mirus) according to the manufacturer's instructions. Cells were harvested 48 hours after transfection. […] The resin was washed two times with low salt buffer and one time with high salt buffer (20 mM Tris, pH 7.5, 500 mM NaCl, 0.5 mM EDTA, 5 mM beta-mercaptoethanol, protease inhibitors (complete mini, Roche) and phosphatase inhibitors (PhosSTOP mini, Roche). To elute the bound Cezanne 1, elution buffer (10 mM Tris, pH 7.5, 150 mM NaCl, 0.5 mM EDTA, 10% glycerol, 0.5% NP40, 5 mM beta-mercaptoethanol, 0.15 mg/ml 3× FLAG peptide (Sigma-Aldrich)) was added to the resin and incubated at 4° C. for 2.5 hours while rotating. The resin was centrifuged at 4000 rpm for 30 seconds, and the supernatant containing purified FLAG-Cezanne 1 was removed and stored at −80° C. […] Dilution plates were prepared at 21 times the final concentration (2100 μM for a final concentration of 100 μM) in 50% DMSO in a 96-well polypropylene V-bottom plate (Greiner #651201). […] Reactions were performed in duplicate in black 384 well plates (small volume, Greiner 784076) in a final reaction volume of 21 μl. Either 1 μl of 50% DMSO or diluted compound was added to the plate. Cezanne 1 was diluted in reaction buffer (40 mM Tris, pH 7.5, 0.005% Tween 20, 0.5 mg/ml BSA, 5 mM—beta-mercaptoethanol) to the equivalent of 0.005 μl/well and 10 μl of diluted Cezanne 1 was added to the compound. Enzyme and compound were incubated for 30 min at room temp. Reactions were initiated by the addition of 50 nM of TAMRA labelled peptide linked to ubiquitin via an iso-peptide bond as fluorescence polarisation substrate. Reactions were read immediately after addition of substrate and following a 2 hr incubation at room temperature. Readings were performed on a Pherastar Plus (BMG Labtech). λ Excitation 540 nm; λ Emission 590 nm.
# Sequence of Cezanne 1 (Q6GQQ9 whole entry): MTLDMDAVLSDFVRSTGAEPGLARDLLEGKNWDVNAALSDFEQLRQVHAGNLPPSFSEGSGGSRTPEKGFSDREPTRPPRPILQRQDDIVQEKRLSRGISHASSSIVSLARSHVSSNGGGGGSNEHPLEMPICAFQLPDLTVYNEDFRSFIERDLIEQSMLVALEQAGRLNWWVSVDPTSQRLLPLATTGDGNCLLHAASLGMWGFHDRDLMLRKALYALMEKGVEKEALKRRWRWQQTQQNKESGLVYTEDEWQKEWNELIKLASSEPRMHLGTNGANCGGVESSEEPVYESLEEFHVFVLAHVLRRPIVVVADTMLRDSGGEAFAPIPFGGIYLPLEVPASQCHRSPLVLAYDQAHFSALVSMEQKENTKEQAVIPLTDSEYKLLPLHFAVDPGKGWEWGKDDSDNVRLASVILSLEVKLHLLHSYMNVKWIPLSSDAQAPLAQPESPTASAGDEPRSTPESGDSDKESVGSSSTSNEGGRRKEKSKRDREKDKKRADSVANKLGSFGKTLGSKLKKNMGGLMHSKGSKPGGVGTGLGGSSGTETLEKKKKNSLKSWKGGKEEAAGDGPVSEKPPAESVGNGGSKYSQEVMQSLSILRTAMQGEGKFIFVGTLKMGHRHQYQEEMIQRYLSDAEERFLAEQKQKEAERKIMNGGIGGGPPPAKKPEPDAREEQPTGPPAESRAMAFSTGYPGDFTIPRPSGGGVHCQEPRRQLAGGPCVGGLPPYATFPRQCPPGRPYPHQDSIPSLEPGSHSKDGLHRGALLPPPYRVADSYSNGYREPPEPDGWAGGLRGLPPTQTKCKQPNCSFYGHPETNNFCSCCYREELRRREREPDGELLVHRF
row,Structure (SMILES),IC50 [µM]
1,"Cc1cc(-c2ccc3c(c2)NC(=O)C2(CCN(C#N)C2)C3)ccn1 (centres unmarked) [Example 34, 7′-(2-Methylpyridin-4-yl)-2′-oxo-1′,4′-dihydro-2′H-spiro[pyrrolidine-3,3′-quinoline]-1-carbonitrile]",1 to 10
2,"N#CN1CCC2(Cc3ccc(-c4cccc(S(=O)(=O)N5CCOCC5)c4)cc3NC2=O)C1 (centres unmarked) [Example 38, 7′-(3-(Morpholinosulfonyl)phenyl)-2′-oxo-1′,4′-dihydro-2′H-spiro[pyrrolidine-3,3′-quinoline]-1-carbonitrile]",1 to 10
3,"Cn1cc(-c2ccc3c(c2)NC(=O)C2(CCN(C#N)C2)C3)ccc1=O (centres unmarked) [Example 39, 7′-(1-Methyl-6-oxo-1,6-dihydropyridin-3-yl)-2′-oxo-1′,4′-dihydro-2′H-spiro[pyrrolidine-3,3′-quinoline]-1-carbonitrile]",1 to 10
4,"Cc1nc2cc(-c3ccc4c(c3)NC(=O)C3(CCN(C#N)C3)C4)ccc2s1 (centres unmarked) [Example 40, 7′-(2-Methylbenzo[d]thiazol-5-yl)-2′-oxo-1′,4′-dihydro-2′H-spiro[pyrrolidine-3,3′-quinoline]-1-carbonitrile]",0.1 to 1
5,"N#Cc1cccc(-c2ccc3c(c2)CC2(CCN(C#N)C2)C(=O)N3)c1 (centres unmarked) [Example 43, 6′-(3-Cyanophenyl)-2′-oxo-1′,4′-dihydro-2′H-spiro[pyrrolidine-3,3′-quinoline]-1-carbonitrile]",0.1 to 1
6,"N#CN1CCC2(Cc3cc(-c4ccc(F)cc4)ccc3NC2=O)C1 (centres unmarked) [Example 44, 6′-(4-Fluorophenyl)-2′-oxo-1′,4′-dihydro-2′H-spiro[pyrrolidine-3,3′-quinoline]-1-carbonitrile]",0.1 to 1
7,"CN(C)C(=O)c1ccc2c(c1)NC(=O)C1(CCN(C#N)C1)C2 (centres unmarked) [Example 46, 1-Cyano-N,N-dimethyl-2′-oxo-1′,4′-dihydro-2′H-spiro[pyrrolidine-3,3′-quinoline]-7′-carboxamide]",1 to 10
8,"N#Cc1cccc(-c2cnc3c(c2)NC(=O)C2(CCN(C#N)C2)O3)c1 (centres unmarked) [Example 51, 7-(3-Cyanophenyl)-2-oxo-1,2-dihydrospiro[pyrido[2,3-b][1,4]oxazine-3,3′-pyrrolidine]-1′-carbonitrile]",0.1 to 1
9,"N#CN1CCC2(C1)Nc1ncccc1NC2=O (centres unmarked) [Example 55, 2-Oxo-1,4-dihydro-2H-spiro[pyrido[2,3-b]pyrazine-3,3′-pyrrolidine]-1′-carbonitrile]",1 to 10
10,"N#Cc1ccc(-c2cnc3c(c2)NC(=O)C2(CCN(C#N)C2)N3)cc1 (centres unmarked) [Example 58, 7-(4-Cyanophenyl)-2-oxo-1,4-dihydro-2H-spiro[pyrido[2,3-b]pyrazine-3,3′-pyrrolidine]-1′-carbonitrile]",0.1 to 1
11,"N#CN1CCC2(C1)Nc1ncc(-c3ccc(F)cc3)cc1NC2=O (centres unmarked) [Example 59, 7-(4-Fluorophenyl)-2-oxo-1,4-dihydro-2H-spiro[pyrido[2,3-b]pyrazine-3,3′-pyrrolidine]-1′-carbonitrile]",0.1 to 1
12,"N#CN1CCC2(CCNC2=O)C1 (centres unmarked) [Example 62, 6-Oxo-2,7-diazaspiro[4.4]nonane-2-carbonitrile]",> 10
13,"N#CN1CC[C@]2(CCNC2=O)C1 [Example 63, (R)-6-Oxo-2,7-diazaspiro[4.4]nonane-2-carbonitrile]",1 to 10
14,"N#CN1CC[C@]2(Cc3cc(-c4ccccc4)ccc3NC2=O)C1 [Example 67, (R)-2′-Oxo-6′-phenyl-1′,4′-dihydro-2′H-spiro[pyrrolidine-3,3′-quinoline]-1-carbonitrile]",0.1 to 1
15,"N#CN1CC[C@@]2(C1)Nc1ncc(-c3ccccc3)cc1NC2=O [Example 68, (S)-2-Oxo-7-phenyl-1,4-dihydro-2H-spiro[pyrido[2,3-b]pyrazine-3,3′-pyrrolidine]-1′-carbonitrile]",0.1 to 1

# The remaining lines, values ahead:
row,IC50 [µM],Structure (SMILES)
1,1 to 10,"N#CN1CCC2(Cc3ccc(-c4cccc(N5CCCCC5)c4)cc3NC2=O)C1 (centres unmarked) [Example 35, 2′-Oxo-7′-(3-(piperidin-1-yl)phenyl)-1′,4′-dihydro-2′H-spiro[pyrrolidine-3,3′-quinoline]-1-carbonitrile]"
2,0.1 to 1,"CC(=O)Nc1ccccc1-c1ccc2c(c1)NC(=O)C1(CCN(C#N)C1)C2 (centres unmarked) [Example 36, N-(2-(1-Cyano-2′-oxo-1′,4′-dihydro-2′H-spiro[pyrrolidine-3,3′-quinolin]-7′-yl)phenyl)acetamide]"
3,1 to 10,"N#CN1CCC2(Cc3ccc(-c4ccc(C(=O)N5CCOCC5)cc4)cc3NC2=O)C1 (centres unmarked) [Example 37, 7′-(4-(Morpholine-4-carbonyl)phenyl)-2′-oxo-1′,4′-dihydro-2′H-spiro[pyrrolidine-3,3′-quinoline]-1-carbonitrile]"
4,0.1 to 1,"N#CN1CCC2(Cc3cc(-c4ccccc4)ccc3NC2=O)C1 (centres unmarked) [Example 41, 2′-Oxo-6′-phenyl-1′,4′-dehydro-2′H-spiro[pyrrolidine-3,3′-quinoline]-1-carbonitrile]"
5,0.1 to 1,"N#Cc1ccc(-c2ccc3c(c2)CC2(CCN(C#N)C2)C(=O)N3)cc1 (centres unmarked) [Example 42, 6′-(4-Cyanophenyl)-2′-oxo-1′,4′-dihydro-2′H-spiro[pyrrolidine-3,3′-quinoline]-1-carbonitrile]"
6,0.1 to 1,"N#CN1CCC2(Cc3cc(-c4cccc(F)c4)ccc3NC2=O)C1 (centres unmarked) [Example 45, 6′-(3-Fluorophenyl)-2′-oxo-1′,4′-dihydro-2′H-spiro[pyrrolidine-3,3′-quinoline]-1-carbonitrile]"
7,1 to 10,"CNC(=O)c1ccc2c(c1)NC(=O)C1(CCN(C#N)C1)C2 (centres unmarked) [Example 47, 1-Cyano-N-methyl-2′-oxo-1′,4′-dihydro-2′H-spiro[pyrrolidine-3,3′-quinoline]-7′-carboxamide]"
8,0.1 to 1,"N#CN1CCC2(C1)Oc1ncccc1NC2=O (centres unmarked) [Example 48, 2-Oxo-1,2-dihydrospiro[pyrido[2,3-b][1,4]oxazine-3,3′-pyrrolidine]-1′-carbonitrile]"
9,0.1 to 1,"N#CN1CCC2(C1)Oc1ncc(-c3ccccc3)cc1NC2=O (centres unmarked) [Example 49, 2-Oxo-7-phenyl-1,2-dihydrospiro[pyrido[2,3-b][1,4]oxazine-3,3′-pyrrolidine]-1′-carbonitrile]"
10,0.1 to 1,"N#Cc1ccc(-c2cnc3c(c2)NC(=O)C2(CCN(C#N)C2)O3)cc1 (centres unmarked) [Example 50, 7-(4-Cyanophenyl)-2-oxo-1,2-dihydrospiro[pyrido[2,3-b][1,4]oxazine-3,3′-pyrrolidine]-1′-carbonitrile]"
11,0.1 to 1,"N#CN1CCC2(C1)Oc1ncc(-c3ccc(F)cc3)cc1NC2=O (centres unmarked) [Example 52, 7-(4-Fluorophenyl)-2-oxo-1,2-dihydrospiro[pyrido[2,3-b][1,4]oxazine-3,3′-pyrrolidine]-1′-carbonitrile]"
12,0.1 to 1,"N#CN1CCC2(C1)Oc1ncc(-c3cccc(F)c3)cc1NC2=O (centres unmarked) [Example 53, 7-(3-Fluorophenyl)-2-oxo-1,2-dihydrospiro[pyrido[2,3-b][1,4]oxazine-3,3′-pyrrolidine]-1′-carbonitrile]"
13,0.1 to 1,"N#CN1CCC2(C1)Oc1nc(-c3ccccc3)ccc1NC2=O (centres unmarked) [Example 54, 2-Oxo-6-phenyl-1,2-dihydrospiro[pyrido[2,3-b][1,4]oxazine-3,3′-pyrrolidine]-1′-carbonitrile]"
14,1 to 10,"N#CN1CCC2(C1)Nc1nc(C(F)(F)F)ccc1NC2=O (centres unmarked) [Example 56, 2-Oxo-6-(trifluoromethyl)-1,4-dihydro-2H-spiro[pyrido[2,3-b]pyrazine-3,3′-pyrrolidine]-1′-carbonitrile]"
15,0.1 to 1,"N#CN1CCC2(C1)Nc1ncc(-c3ccccc3)cc1NC2=O (centres unmarked) [Example 57, 2-Oxo-7-phenyl-1,4-dihydro-2H-spiro[pyrido[2,3-b]pyrazine-3,3′-pyrrolidine]-1′-carbonitrile]"
16,0.1 to 1,"N#CN1CCC2(C1)Nc1ncc(-c3cccc(F)c3)cc1NC2=O (centres unmarked) [Example 60, 7-(3-Fluorophenyl)-2-oxo-1,4-dihydro-2H-spiro[pyrido[2,3-b]pyrazine-3,3′-pyrrolidine]-1′-carbonitrile]"
17,1 to 10,"N#CN1CCC2(C1)Nc1cccnc1NC2=O (centres unmarked) [Example 61, 3-Oxo-3,4-dihydro-1H-spiro[pyrido[2,3-b]pyrazine-2,3′-pyrrolidine]-1′-carbonitrile]"
18,0.1 to 1,"N#CN1CC[C@@]2(C1)Oc1ncc(-c3ccccc3)cc1NC2=O [Example 64, (S)-2-Oxo-7-phenyl-1,2-dihydrospiro[pyrido[2,3-b][1,4]oxazine-3,3′-pyrrolidine]-1′-carbonitrile]"
19,1 to 10,"N#CN1CC[C@@]2(C1)Oc1ncccc1NC2=O [Example 65, (S)-2-Oxo-1,2-dihydrospiro[pyrido[2,3-b][1,4]oxazine-3,3′-pyrrolidine]-1′-carbonitrile]"
20,0.1 to 1,"N#CN1CC[C@@]2(C1)Nc1ncccc1NC2=O [Example 66, (S)-2-Oxo-1,4-dihydro-2H-spiro[pyrido[2,3-b]pyrazine-3,3′-pyrrolidine]-1′-carbonitrile]"
